From US9233127B2, “Compositions and methods for CXCR4 signaling and umbilical cord blood stem cell engraftment” (University of Virginia Patent Foundation, priority 2012, dated 2016)
“Also recorded” adds a separate entry of the source.

Experiments:
CD34+ cells = experiment: Transwell chemotaxis of CD34+ cells to an SDF-1 gradient (priming); type: cell-based, human
Experimental: FIG. 11A-B—Effect of SLP and its components on chemotaxis of CD34^+ cells. Panel A: Chemotaxis of BM CD34^+ cells towards medium alone (control), SDF-1 low (10 ng/mL) alone, SLP (combined SLP from three patients), SDF-1 low+SLP, and SDF-1 high (300 ng/mL). Data are pooled from quadruplicate samples from three independent experiments. *p<0.00001. Panel B: Chemotaxis of UCB CD34^+ cells to medium alone (control), SDF-1 low (10 ng/mL) alone and SDF-1 low (10 ng/mL)+uPAR (1 μg/mL) or +ICAM (1 μg/mL) or +VCAM (1 μg/mL) or +FN (2 μg/mL), or +FG (4 μg/mL) or +C3a (1 μg/mL). Data are pooled from quadruplicate samples from three independent experiments. * p<0.00001.
Chemotaxis of CD34^+ cells to medium alone (control), C3a (1 μg/ml), C3adesArg (1 μg/ml), SDF-1 low (10 ng/mL) alone, and SDF-1 low (10 ng/mL)+C3a low (0.1 μg/ml) or SDF-1 low (10 ng/mL)+C3a (1 μg/ml) or SDF-1 low (10 ng/mL)+C3adesArg (1 μg/ml). Data are pooled from quadruplicate samples from three independent experiments.* p<0.00001.
FIG. 13A-B—Chemotaxis of cells to an SDF-1 gradient is lipid raft-dependent. Panel A: Chemotaxis of CD34^+ cells to medium alone (control), SDF-1 (300 ng/mL) and SDF-1 (300 ng/mL) after preincubation for 1 hr with Amphotericin (10 μg/mL) or Nystatin (50 μg/mL). Cells were collected after chemotaxis from the lower chambers and plated in a clonogenic assay. The number of CFU-GM and BFU-E colonies formed by harvested cells is shown as a percentage of control values. Data are pooled from quadruplicate samples from three independent experiments. *p<0.0001. Panel B: Chemotaxis of CD34^+ cells towards medium alone (control), SDF-1 low (10 ng/mL) alone, or SDF-1 low with cells exposed to C3a (1 μg/mL). Cells pretreated before chemotaxis for 1 hr with MβCD (2.5 mM) are shown as gray bars. Data are pooled from quadruplicate samples from three independent experiments. * p<0.00001.
HSPCs from the mPB engraft faster compared to HSPCs aspirated from BM. To test the hypothesis that mPB-derived HSPCs are primed in their responses to SDF-1 by molecules present in SLP, we pooled together SLP from three patients and exposed BM or UCB CD34^+ cells to the SLP during chemotaxis to a low (10 ng/mL) dose of SDF-1.
To address this issue further, the formation of rafts in the cells was perturbed by MβCD, which depletes cholesterol from the cell membrane. The CD34^+ cells were pre-incubated with MβCD for 1 hr. Chemotaxis to a low dose of SDF-1 in the presence of C3a (in the upper chambers) was evaluated.

UCB and BM CD34+ cells = experiment: MMP secretion and trans-Matrigel migration of primed CD34+ cells; type: cell-based, human; details: UCB and BM CD34+ cells primed with C3a
[1] = test system: human BM- and UCB-derived CD34+ cells; experiment: Homing of primed human CD34+ cells into BM of lethally irradiated NOD/SCID mice; type: in vivo
From the text: FIG. 16A-B—Panel A: C3a primes homing of murine CFU-GM and CFU-S into BM of lethally irradiated mice. Murine BM-derived Sca-1^+ cells (10^5/mouse) were transplanted into lethally irradiated syngeneic mice. At 16 hrs after transplant, cells were recovered from the femurs of transplanted animals and assayed in secondary cultures for the number of clonogenic CFU-GM (left panel) and, after transplant into secondarily irradiated animals, for the number of day-12 CFU-S (right panel). Data are pooled from three independent experiments using 10 mice each/tested cells (n=30). * p<0.0001. No HSPC cells were recovered from the marrow cavities of control animals (irradiated, not transplanted) Panel B: C3a primes homing of human CB and BM CD34^+ cells into the BM of lethally irradiated NOD/SCID mice. […] Data are pooled from independent experiments preformed on three different CB- and three different BM samples using 2-4 mice/tested cell sample. p<0.0001.
As final proof of our hypothesis and to test whether the primed cells home better to BM, we primed murine BM-derived Sca-1^+ and human BM- and UCB-derived CD34^+ cells with C3a before their transplantation into lethally irradiated mice. Sixteen hrs after transplantation, recipient mice were sacrificed and cells were recovered from their marrow cavities. […]

CXCR4 = experiment: Western blot of CXCR4 in lipid raft membrane fractions of THP-1 cells; type: cell-based, human
Experimental: FIG. 15A-B—Western blot analysis of the colocalization of CXCR4 in fractions of cell membranes enriched in lipid rafts (fractions 3-5) and depleted of lipid rafts (fractions 9-11). Panel A: Hematopoietic THP-1 cells were stimulated by C3a (1 μg/mL) or desArgC3a (1 μg/mL) or not stimulated (control). CXCR4 was detected in these membrane fractions by Western blot along with ganglioside GM1, a marker of lipid rafts. Experiments were performed three times with similar results. Panel B: In control experiments, cells were pretreated for 1 hr with 10 mM MβCD. A representative study is shown.
Furthermore, direct evidence of the effect of priming agents on CXCR4 incorporation into membrane lipid rafts was obtained from Western blot analysis of CXCR4 expression in various fractions of cell membranes isolated according to their lipid raft content (Example 2, FIG. 15A-B). […] The role of C3a in incorporation of CXCR4 into membrane lipid rafts in UCB cells and involvement of other signaling molecules to this phenomenon will be evaluated in Aim 1.

Substance: C3a: 77 amino acid residue protein derived from the human complement C3a precursor; SEQ ID NO:1
- chemotaxis of human CD34+ cells to low-threshold doses of SDF-1 (CD34+ cells; SDF-1 low 10 ng/mL, C3a or C3adesArg 1 μg/ml): potentiate (prime) chemotaxis
- chemoattraction of CD34+ cells by the C3 cleavage fragment on its own (CD34+ cells; no SDF-1, 1 μg/ml): neither C3 cleavage fragments chemoattract
- MMP-9 and MMP-2 secretion (UCB and BM CD34+ cells): significantly increase
- trans-Matrigel migration toward a low dose of SDF-1 (UCB and BM CD34+ cells): significantly increase
- marrow homing, number of CFU-GM harvested per femur ([1]; 24 h after injection of NOD/SCID mice, C3a primed UCB CD34+ HSC): enhanced marrow homing
- homing of human CFU-GM into BM ([1]; CB and BM CD34+ cells preincubated with C3a 30 min, 16 hrs after transplantation): home more efficiently; also recorded: homed better; also recorded: primes homing
- incorporation of Rac-1 into membrane lipid rafts (CXCR4): increased the incorporation of Rac-1
- incorporation of CXCR4 into GM1-enriched membrane lipid rafts (fractions 3-5) (CXCR4; 1 μg/mL): stimulates incorporation of CXCR4
